Reference: ChEMBL document CHEMBL1909046, “DrugMatrix in vitro pharmacology data”
pIC50, pKi: −log10 of the molar value.

Experiments:
[1] = biological target: C-C chemokine receptor type 5 (Homo sapiens, UniProt P51681); type: cell membranes, Membrane; details: hek293; also: in other assays of this panel Not Active means under 50% inhibition at 10 µM
[2] = biological target: Mitogen-activated protein kinase 14 (Homo sapiens, UniProt Q16539); parameters: species or system Escherichia coli;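 also: inhibition of p38alpha enzyme activity in a biochemical kinase assay, with myelin basic protein serving as substrate; in other assays of this panel Not Active means under 50% inhibition at 10 µM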
[3] = biological target: Protein kinase C alpha type (Homo sapiens, UniProt P17252); type: cell-based; details: sf9;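 also: inhibition of PKCalpha kinase activity measured in an enzyme assay with histone as the phosphorylation substrate; in other assays of this panel Not Active means under 50% inhibition at 10 µM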
[4] = biological target: T1, C-C chemokine receptor type 4 (Homo sapiens, UniProt P51679); type: cell membranes, Membrane; details: chem-1; also: in other assays of this panel Not Active means under 50% inhibition at 10 µM
T1 sequence (P51679 whole entry): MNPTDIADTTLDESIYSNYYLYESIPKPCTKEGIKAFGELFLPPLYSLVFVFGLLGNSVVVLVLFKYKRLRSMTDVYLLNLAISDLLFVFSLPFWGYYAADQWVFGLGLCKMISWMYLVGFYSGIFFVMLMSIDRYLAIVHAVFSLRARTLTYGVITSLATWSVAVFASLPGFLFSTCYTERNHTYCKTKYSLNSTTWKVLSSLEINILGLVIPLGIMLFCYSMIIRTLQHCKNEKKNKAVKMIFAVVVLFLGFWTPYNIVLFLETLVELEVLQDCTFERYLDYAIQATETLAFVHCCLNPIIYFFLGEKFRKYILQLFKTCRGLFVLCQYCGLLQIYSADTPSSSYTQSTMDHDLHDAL

[5] = biological target: C-C chemokine receptor type 2 (Homo sapiens, UniProt P41597); type: cell membranes, CHO-K1, Membrane; details: cho-k1; also: in other assays of this panel Not Active means under 50% inhibition at 10 µM
[6] = biological target: cGMP-specific 3',5'-cyclic phosphodiesterase (Homo sapiens, UniProt O76074); test: DRUGMATRIX: Phosphodiesterase PDE5 enzyme inhibition (substrate: [3H]cGMP + cGMP); type: tissue-based, Platelet; details: platelet; Not Active = under 50% inhibition at 10 µM
[7] = biological target: T2, C-X-C chemokine receptor type 2 (Homo sapiens, UniProt P25025); type: cell membranes, Membrane; details: cho-k1; also: in other assays of this panel Not Active means under 50% inhibition at 10 µM
T2 sequence (P25025 whole entry): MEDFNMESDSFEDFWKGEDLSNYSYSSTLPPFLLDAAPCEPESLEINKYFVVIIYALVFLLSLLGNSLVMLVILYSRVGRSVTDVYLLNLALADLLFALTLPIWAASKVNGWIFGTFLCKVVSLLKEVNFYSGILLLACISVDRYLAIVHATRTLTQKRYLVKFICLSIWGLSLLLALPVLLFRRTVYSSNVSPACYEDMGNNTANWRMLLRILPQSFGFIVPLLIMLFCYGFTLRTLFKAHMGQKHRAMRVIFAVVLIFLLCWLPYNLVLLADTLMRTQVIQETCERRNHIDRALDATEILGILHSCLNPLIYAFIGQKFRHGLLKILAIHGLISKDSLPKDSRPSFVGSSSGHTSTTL

Substance-K receptor = biological target: T3, Substance-K receptor (Homo sapiens, UniProt P21452); type: cell membranes, CHO, Membrane; details: for pIC50: read-out: IC50; for pKi: read-out: Ki; for IC50 / Ki: cho
T3 sequence (P21452 whole entry): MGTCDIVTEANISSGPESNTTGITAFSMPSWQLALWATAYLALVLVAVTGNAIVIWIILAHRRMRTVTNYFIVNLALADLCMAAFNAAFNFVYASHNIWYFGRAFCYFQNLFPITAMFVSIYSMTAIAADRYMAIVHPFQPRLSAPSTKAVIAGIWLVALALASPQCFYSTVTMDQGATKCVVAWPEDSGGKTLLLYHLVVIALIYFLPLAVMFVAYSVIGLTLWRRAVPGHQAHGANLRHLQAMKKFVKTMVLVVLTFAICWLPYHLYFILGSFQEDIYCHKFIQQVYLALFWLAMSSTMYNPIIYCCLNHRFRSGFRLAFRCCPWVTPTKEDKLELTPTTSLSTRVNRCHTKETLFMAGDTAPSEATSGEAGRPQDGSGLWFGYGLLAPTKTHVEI

[8] = biological target: Kappa-type opioid receptor (Homo sapiens, UniProt P41145); test: DRUGMATRIX: Opiate kappa (OP2, KOP) radioligand binding (ligand: [3H] Diprenorphine); type: cell membranes, HEK293, Membrane; details: hek293; Not Active = under 50% inhibition at 10 µM
[9] = biological target: Delta-type opioid receptor (Homo sapiens, UniProt P41143); type: cell membranes, HEK293, Membrane; details: hek293; also: in other assays of this panel Not Active means under 50% inhibition at 10 µM
[10] = biological target: Sigma non-opioid intracellular receptor 1 (Homo sapiens, UniProt Q99720); test: DRUGMATRIX: Sigma1 radioligand binding (ligand: [3H] Haloperidol); type: cell membranes, Jurkat, Membrane; details: Not Active = under 50% inhibition at 10 µM; for pIC50: read-out: IC50; for pKi: read-out: Ki; for IC50 / Ki: jurkat
[11] = DRUGMATRIX: Atrial Natriuretic Factor (ANF) radioligand binding (ligand: [125I] ANF (rat)); type: cell membranes, Cavia porcellus, Dunkin-Hartley, Adrenal gland, Membrane; details: Not Active = under 50% inhibition at 10 µM
[12] = biological target: T4, Alpha-2C adrenergic receptor (Homo sapiens, UniProt P18825); test: DRUGMATRIX: Adrenergic Alpha-2C radioligand binding (ligand: [3H] MK-912); type: cell membranes, Sf9, Membrane; details: sf9
T4 sequence (P18825 whole entry): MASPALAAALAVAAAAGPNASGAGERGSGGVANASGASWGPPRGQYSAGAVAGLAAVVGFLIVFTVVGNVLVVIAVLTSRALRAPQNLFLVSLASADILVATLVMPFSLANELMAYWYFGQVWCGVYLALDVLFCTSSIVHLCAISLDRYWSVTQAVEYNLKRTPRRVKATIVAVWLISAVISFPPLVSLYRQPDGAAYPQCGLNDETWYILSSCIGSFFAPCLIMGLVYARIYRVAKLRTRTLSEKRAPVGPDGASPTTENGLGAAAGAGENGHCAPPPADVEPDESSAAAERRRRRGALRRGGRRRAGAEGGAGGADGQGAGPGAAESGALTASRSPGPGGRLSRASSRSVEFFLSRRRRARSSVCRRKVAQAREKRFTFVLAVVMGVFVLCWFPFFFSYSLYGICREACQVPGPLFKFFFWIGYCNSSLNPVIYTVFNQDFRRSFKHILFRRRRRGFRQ

[13] = DRUGMATRIX: Leukotriene, BLT (LTB4) radioligand binding (ligand: [3H]LTB4); type: cell membranes, Membrane; details: u-937; Not Active = under 50% inhibition at 10 µM
[14] = DRUGMATRIX: Glutamate, Kainate radioligand binding (ligand: [3H] Kainic acid); type: cell membranes, Rattus norvegicus, Wistar, Brain, Membrane; details: Not Active = under 50% inhibition at 10 µM
D(1A) dopamine receptor = D(1A) dopamine receptor (Homo sapiens, UniProt P21728); test: DRUGMATRIX: Dopamine D1 radioligand binding (ligand: [3H] SCH-23390); type: cell membranes, CHO, Membrane; details: cho, Not Active = under 50% inhibition at 10 µM
D(1A) dopamine receptor, sequence (P21728 whole entry): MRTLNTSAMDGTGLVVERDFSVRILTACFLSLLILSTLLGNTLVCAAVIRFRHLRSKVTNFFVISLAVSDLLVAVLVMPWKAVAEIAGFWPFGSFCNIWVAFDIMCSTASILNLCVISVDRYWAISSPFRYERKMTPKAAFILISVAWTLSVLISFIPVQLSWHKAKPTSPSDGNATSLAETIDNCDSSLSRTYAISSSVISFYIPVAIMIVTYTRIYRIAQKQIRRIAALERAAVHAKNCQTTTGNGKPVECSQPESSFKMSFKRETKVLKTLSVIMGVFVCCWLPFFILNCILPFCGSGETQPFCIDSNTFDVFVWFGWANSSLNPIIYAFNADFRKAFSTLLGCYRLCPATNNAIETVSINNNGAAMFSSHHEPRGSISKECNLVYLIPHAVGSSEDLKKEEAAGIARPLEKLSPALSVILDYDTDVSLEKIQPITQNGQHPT

C-C chemokine receptor type 2, sequence (P41597 whole entry): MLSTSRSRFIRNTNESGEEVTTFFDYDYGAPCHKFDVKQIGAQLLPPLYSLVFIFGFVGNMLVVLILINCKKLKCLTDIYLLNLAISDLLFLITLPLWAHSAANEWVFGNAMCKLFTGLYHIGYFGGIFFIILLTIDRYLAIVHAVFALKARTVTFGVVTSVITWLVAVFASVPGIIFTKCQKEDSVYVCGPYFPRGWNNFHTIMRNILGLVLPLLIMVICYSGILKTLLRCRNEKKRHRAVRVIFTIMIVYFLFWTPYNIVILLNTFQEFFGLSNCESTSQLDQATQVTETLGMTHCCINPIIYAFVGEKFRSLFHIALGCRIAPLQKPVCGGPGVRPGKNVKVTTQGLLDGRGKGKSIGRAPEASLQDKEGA
Sigma non-opioid intracellular receptor 1, sequence (Q99720 whole entry): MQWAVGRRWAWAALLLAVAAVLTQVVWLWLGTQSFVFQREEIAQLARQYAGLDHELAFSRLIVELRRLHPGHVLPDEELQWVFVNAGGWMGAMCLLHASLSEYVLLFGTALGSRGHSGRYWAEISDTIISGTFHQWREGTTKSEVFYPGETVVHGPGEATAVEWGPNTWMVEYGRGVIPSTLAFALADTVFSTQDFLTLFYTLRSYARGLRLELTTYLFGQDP
Delta-type opioid receptor, sequence (P41143 whole entry): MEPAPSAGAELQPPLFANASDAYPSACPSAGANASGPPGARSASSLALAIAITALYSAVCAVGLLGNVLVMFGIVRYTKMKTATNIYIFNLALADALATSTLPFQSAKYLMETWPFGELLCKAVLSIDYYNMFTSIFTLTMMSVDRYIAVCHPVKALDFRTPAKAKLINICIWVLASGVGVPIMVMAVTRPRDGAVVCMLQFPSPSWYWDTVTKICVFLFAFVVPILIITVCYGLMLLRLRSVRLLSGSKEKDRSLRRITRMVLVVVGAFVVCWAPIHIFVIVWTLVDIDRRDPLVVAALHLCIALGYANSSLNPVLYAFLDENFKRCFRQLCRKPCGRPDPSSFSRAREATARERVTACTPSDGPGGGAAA
Kappa-type opioid receptor, sequence (P41145 whole entry): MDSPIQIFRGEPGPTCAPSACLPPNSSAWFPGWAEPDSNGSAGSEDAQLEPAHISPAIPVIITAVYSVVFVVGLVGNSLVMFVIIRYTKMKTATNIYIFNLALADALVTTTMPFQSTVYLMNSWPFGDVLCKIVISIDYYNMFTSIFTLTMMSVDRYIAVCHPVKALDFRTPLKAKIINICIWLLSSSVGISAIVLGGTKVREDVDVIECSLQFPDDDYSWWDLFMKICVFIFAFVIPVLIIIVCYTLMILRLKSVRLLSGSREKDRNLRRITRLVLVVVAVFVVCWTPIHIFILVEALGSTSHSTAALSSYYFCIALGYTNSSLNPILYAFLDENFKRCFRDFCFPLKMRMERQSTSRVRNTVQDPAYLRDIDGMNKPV
Mitogen-activated protein kinase 14, sequence (Q16539 whole entry): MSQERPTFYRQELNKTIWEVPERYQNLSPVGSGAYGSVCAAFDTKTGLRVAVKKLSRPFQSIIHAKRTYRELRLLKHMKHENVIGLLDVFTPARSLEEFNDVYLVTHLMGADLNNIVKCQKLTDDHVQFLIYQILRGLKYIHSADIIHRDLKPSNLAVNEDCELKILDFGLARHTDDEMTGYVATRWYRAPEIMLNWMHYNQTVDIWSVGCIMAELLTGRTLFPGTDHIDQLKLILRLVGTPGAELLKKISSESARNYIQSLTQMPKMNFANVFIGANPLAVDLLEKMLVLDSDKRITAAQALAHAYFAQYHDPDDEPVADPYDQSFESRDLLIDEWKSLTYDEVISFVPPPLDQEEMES
C-C chemokine receptor type 5, sequence (P51681 whole entry): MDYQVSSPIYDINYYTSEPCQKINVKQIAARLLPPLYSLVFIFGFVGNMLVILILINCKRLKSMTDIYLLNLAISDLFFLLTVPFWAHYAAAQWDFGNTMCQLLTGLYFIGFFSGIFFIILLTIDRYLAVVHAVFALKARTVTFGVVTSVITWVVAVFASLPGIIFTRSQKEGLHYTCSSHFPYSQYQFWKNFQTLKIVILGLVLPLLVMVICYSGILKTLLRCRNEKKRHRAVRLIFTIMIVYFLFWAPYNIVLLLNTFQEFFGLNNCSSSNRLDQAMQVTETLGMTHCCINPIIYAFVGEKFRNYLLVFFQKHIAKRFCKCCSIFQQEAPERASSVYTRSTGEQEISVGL

Compound | IC50 [1] | IC50 [2] | IC50 [3] | IC50 [4] | IC50 [5] | IC50 [6] | IC50 [7] | IC50 [8] | IC50 [9] | IC50 (Substance-K receptor) | IC50 [10] | IC50 [11] | Ki [11] | IC50 [12] | IC50 [13] | Ki [13] | IC50 [14] | Ki [14] | IC50 (D(1A) dopamine receptor) | further results
COc1ccc(CCN2CCC(Nc3nc4ccccc4n3Cc3ccc(F)cc3)CC2)cc1 [ASTEMIZOLE] | Not Active | Not Active | Not Active | Not Active | Not Active | Not Active | Not Active |  |  |  |  |  |  |  |  |  |  |  |  | pIC50 (Substance-K receptor): 5.52; pKi (Substance-K receptor): 6.00
CN(C)CCCN1c2ccccc2CCc2ccc(Cl)cc21 [CLOMIPRAMINE] | Not Active | Not Active | Not Active | Not Active | Not Active | Not Active | Not Active | Not Active | Not Active | Not Active |  |  |  |  |  |  |  |  |  | pIC50 [10]: 5.87; pKi [10]: 6.24
O=C(CCCN1CCC(O)(c2ccc(Cl)cc2)CC1)c1ccc(F)cc1 [HALOPERIDOL] | Not Active | Not Active | Not Active | Not Active | Not Active | Not Active | Not Active | Not Active | Not Active | Not Active |  |  |  |  |  |  |  |  |  | 
CC(C)(O)c1ccccc1CC[C@@H](SCC1(CC(=O)O)CC1)c1cccc(/C=C/c2ccc3ccc(Cl)cc3n2)c1 [MONTELUKAST] | Not Active |  | Not Active | Not Active | Not Active | Not Active | Not Active | Not Active |  |  | Not Active |  |  |  |  |  |  |  |  | pIC50 ([2]; read-out: IC50): 6.07; pIC50 (Substance-K receptor): 5.42; pKi (Substance-K receptor): 5.89
NNc1ccccc1 [PHENYLHYDRAZINE] | Not Active | Not Active | Not Active | Not Active | Not Active | Not Active | Not Active |  | Not Active | Not Active | Not Active | Not Active | Not Active | Not Active | Not Active | Not Active | Not Active | Not Active | Not Active | 
O=[N+]([O-])c1cc([As](=O)(O)O)ccc1O [ROXARSONE] | Not Active | Not Active | Not Active | Not Active | Not Active | Not Active | Not Active |  | Not Active | Not Active | Not Active | Not Active | Not Active | Not Active | Not Active | Not Active | Not Active | Not Active | Not Active | Ki [9]: Not Active; Ki [1]: Not Active; Ki [2]: Not Active; Ki [12]: Not Active; Ki [3]: Not Active; Ki (D(1A) dopamine receptor): Not Active; Ki [10]: Not Active; Ki [4]: Not Active; Ki [5]: Not Active; Ki [6]: Not Active; Ki [7]: Not Active; Ki (Substance-K receptor): Not Active
CSc1ccc2c(c1)N(CCC1CCCCN1C)c1ccccc1S2 (stereo not given) [THIORIDAZINE] | Not Active | Not Active | Not Active | Not Active | Not Active | Not Active | Not Active |  | Not Active | Not Active |  |  |  |  |  |  |  |  |  | pIC50 [10]: 6.44; pKi [10]: 6.82
COc1cccc(C2(O)CCCCC2CN(C)C)c1 (stereo not given) [TRAMADOL] | Not Active | Not Active | Not Active | Not Active | Not Active | Not Active | Not Active |  | Not Active | Not Active | Not Active |  |  | Not Active |  |  |  |  |  | 
COc1ccc(C(CN(C)C)C2(O)CCCCC2)cc1 (stereo not given) [VENLAFAXINE] | Not Active | Not Active | Not Active | Not Active | Not Active | Not Active | Not Active |  | Not Active | Not Active | Not Active | Not Active | Not Active | Not Active | Not Active | Not Active | Not Active | Not Active | Not Active | 
IVERMECTIN | Not Active | Not Active | Not Active | Not Active | Not Active | Not Active | Not Active |  | Not Active | Not Active | Not Active | Not Active | Not Active |  | Not Active | Not Active | Not Active | Not Active |  | Ki [9]: Not Active; Ki [1]: Not Active; Ki [2]: Not Active; pIC50 ([12]; read-out: IC50): 5.41; pKi ([12]; read-out: Ki): 6.24; Ki [3]: Not Active; pIC50 (D(1A) dopamine receptor; read-out: IC50): 5.35; pKi (D(1A) dopamine receptor; read-out: Ki): 5.65; Ki [10]: Not Active; Ki [4]: Not Active; Ki [5]: Not Active; Ki [6]: Not Active; Ki [7]: Not Active; Ki (Substance-K receptor): Not Active
